Experimental data published in patent publication EP0549040A1, “Methods of making 4" derivatives of 9-deoxo-8a-aza-8a-alkyl-8a-homoerythromycin A” (MERCK & CO. INC., priority 1991, dated 1993).
Converted amounts (≈) assume the structure as drawn. Where two headings read alike, the source gives them in different places.

Legend:
Experiment in all cases: liquid turbidimetric microtiter MIC determination in broth media
Format in all cases: cell-based
[1] = system: Enterobacter cloacae CL 4298
Excerpt: (§1) The antibacterial activities of the compounds of Examples 8 and 10 against a panel of aerobic Gram positive and negative bacteria is shown in the following Table. The assay employs a liquid turbidimetric microtiter method for the determination of the minimum inhibitory concentration (MIC) in broth media. […] The MIC is generally not an absolute value but rather a concentration range that falls within a two-fold dilution limit. Generally twelve two-fold dilutions of the test compound are employed with the initial concentration set at 128 mcg/ml.

[2] = system: Haemophilus influenzae AT 43163
Excerpt: as §1

[3] = system: Streptococcus pneumoniae CL 2883
Excerpt: as §1

[4] = system: Haemophilus influenzae MB 5363
Excerpt: as §1

[5] = system: Streptococcus pyogenes MB 2874
Excerpt: as §1

[6] = system: Staphylococcus epidermidis MB 5414
Excerpt: as §1

[7] = system: Enterococcus faecalis MB 5407
Excerpt: as §1

[8] = system: Klebsiella pneumoniae MB 4005
Excerpt: as §1

[9] = system: Staphylococcus aureus MB 2865
Excerpt: as §1

Escherichia coli MB 2884 = system: Escherichia coli MB 2884
Excerpt: as §1

[10] = system: Enterococcus faecium MB 5416; conditions: MB5416, Table I
Excerpt: as §1

Escherichia coli MB 4926 = conditions: MB4926, Table I
Excerpt: as §1

[11] = system: Steptococcus viridans CL 2943; conditions: Table I
Excerpt: as §1

[12] = system: Pseudomonas stutzeri MB 1231; conditions: Stutzerimonas stutzeri, MB1231, Table I
Excerpt: as §1

[13] = system: Streptococcus pyogenes MB 54061; conditions: MB54061, Table I
Excerpt: as §1

[14] = system: Staphylococcus haemolyticus MB 5412; conditions: MB5412, Table I
Excerpt: as §1

[15] = system: Streptococcus agalactiae CL 1343; conditions: CL1343, Table I
Excerpt: as §1

[16] = CL4298, Table II, MIC, Enterobacter cloacae CL 4298, read-out: In vitro Activity
[17] = AT43163, Table II, MIC, Haemophilus influenzae AT 43163, read-out: In vitro Activity
[18] = CL2883, Table II, MIC, Streptococcus pneumoniae CL 2883, read-out: In vitro Activity
[19] = MB5363, Table II, MIC, Haemophilus influenzae MB 5363, read-out: In vitro Activity
[20] = MB2874, Table II, MIC, Streptococcus pyogenes MB 2874, read-out: In vitro Activity
[21] = MB5414, Table II, MIC, Staphylococcus epidermidis MB 5414, read-out: In vitro Activity
[22] = MB5407, Table II, MIC, Enterococcus faecalis MB 5407, read-out: In vitro Activity
[23] = MB4005, Table II, MIC, Klebsiella pneumoniae MB 4005, read-out: In vitro Activity
[24] = MB2865, Table II, MIC, Staphylococcus aureus MB 2865, read-out: In vitro Activity
[25] = MB2884, Table II, MIC, read-out: In vitro Activity
[26] = CL2883, Table I, Streptococcus pneumoniae CL 2883, read-out: MIC Values
[27] = MB2874, Table I, Streptococcus pyogenes MB 2874, read-out: MIC Values
[28] = MB5414, Table I, Staphylococcus epidermidis MB 5414, read-out: MIC Values
[29] = MB5407, Table I, Enterococcus faecalis MB 5407, read-out: MIC Values
[30] = MB4005, Table I, Klebsiella pneumoniae MB 4005, read-out: MIC Values
[31] = MB2865, Table I, Staphylococcus aureus MB 2865, read-out: MIC Values
[32] = MB2884, Table I, read-out: MIC Values

With “4''-epi-9-deoxo-8a-aza-8a-methyl-8a-homoerythromycin A [Example 15]” the “In vitro Activity” value ([1]; Table II, MIC, Enterobacter cloacae CL 4298) was 0.5 µg/mL, the “In vitro Activity” value ([2]; Table II, MIC, Haemophilus influenzae AT 43163) was 0.5 µg/mL and the “In vitro Activity” value ([3]; Table II, MIC, Streptococcus pneumoniae CL 2883) was “≦0.06 mcg/ml”. The “In vitro Activity” value ([4]; Table II, MIC, Haemophilus influenzae MB 5363) was 0.5 µg/mL, the “In vitro Activity” value ([5]; Table II, MIC, Streptococcus pyogenes MB 2874) was “≦0.06 mcg/ml” and the “In vitro Activity” value ([6]; Table II, MIC, Staphylococcus epidermidis MB 5414) was 0.25 µg/mL. For the same molecule, the “In vitro Activity” value ([7]; Table II, MIC, Enterococcus faecalis MB 5407) was 1 µg/mL, the “In vitro Activity” value ([8]; Table II, MIC, Klebsiella pneumoniae MB 4005) was 1 µg/mL and the “In vitro Activity” value ([9]; Table II, MIC, Staphylococcus aureus MB 2865) was 0.5 µg/mL. For the same molecule, the “In vitro Activity” value (Escherichia coli MB 2884; Table II, MIC) was 1 µg/mL.
With `CC[C@H]1OC(=O)[C@H](C)[C@@H](O[C@H]2C[C@@](C)(OC)[C@@H](N)[C@H](C)O2)[C@H](C)[C@@H](O[C@@H]2O[C@H](C)C[C@H](N(C)C)[C@H]2O)[C@](C)(O)C[C@@H](C)N(C)C[C@H](C)[C@@H](O)[C@]1(C)O` [Example 19, 4''-Deoxy-4''-(S) - amino-9-deoxo-8a-aza-8a-methyl-8a-homoerythromycin A] the MIC [1, 16] was ≤ 0.06 µg/mL, the MIC [2, 17] was 0.25 µg/mL (≈ 0.334 µM) and the MIC [3, 18] was ≤ 0.06 µg/mL. The MIC [4, 19] was 0.25 µg/mL (≈ 0.334 µM), the MIC [5, 20] was ≤ 0.06 µg/mL and the MIC [6, 21] was 0.51 µg/mL (≈ 0.682 µM). For the same molecule, the MIC [7, 22] was 2 µg/mL (≈ 2.67 µM), the MIC [8, 23] was 0.12 µg/mL (≈ 0.16 µM) and the MIC [9, 24] was 1 µg/mL (≈ 1.34 µM). It also gave an MIC (Escherichia coli MB 2884; [25]) of 0.12 µg/mL (≈ 0.16 µM).
`CC[C@H]1OC(=O)[C@H](C)[C@@H](O[C@H]2C[C@@](C)(OC)[C@@H](O)[C@H](C)O2)[C@H](C)[C@@H](O[C@@H]2O[C@H](C)C[C@H](N(C)C)[C@H]2O)[C@](C)(O)C[C@@H](C)NC[C@H](C)[C@@H](O)[C@]1(C)O` [Example 9, 9-Deoxo-8a-aza-8a-homoerythromycin A] was tested, and the MIC [3, 26] was ≤ 0.06 µg/mL, the MIC [10] was 0.25 µg/mL (≈ 0.34 µM) and the MIC (Escherichia coli MB 4926) was 2 µg/mL (≈ 2.72 µM). The MIC [11] was 8 µg/mL (≈ 10.9 µM), the MIC [5, 27] was ≤ 0.06 µg/mL and the MIC [12] was ≤ 0.06 µg/mL. The MIC [6, 28] was 1 µg/mL (≈ 1.36 µM), the MIC [7, 29] was 8 µg/mL (≈ 10.9 µM) and the MIC [8, 30] was 8 µg/mL (≈ 10.9 µM). The MIC [13] was 128 µg/mL (≈ 174 µM), the MIC [14] was 0.5 µg/mL (≈ 0.68 µM) and the MIC [9, 31] was 0.5 µg/mL (≈ 0.68 µM). The MIC (Escherichia coli MB 2884; [32]) was 4 µg/mL (≈ 5.44 µM) and the MIC [15] was ≤ 0.06 µg/mL.
For `CC[C@H]1OC(=O)[C@H](C)[C@@H](O[C@H]2C[C@@](C)(OC)[C@@H](O)[C@H](C)O2)[C@H](C)[C@@H](O[C@@H]2O[C@H](C)C[C@H](N(C)C)[C@H]2O)[C@](C)(O)C[C@@H](C)N(C)C[C@H](C)[C@@H](O)[C@]1(C)O` [Example 10, 9-Deoxo-8a-aza-8a-methyl-8a-homoerythromycin A], the MIC [3, 26] was ≤ 0.06 µg/mL, the MIC [10] was 0.25 µg/mL (≈ 0.334 µM) and the MIC (Escherichia coli MB 4926) was 0.06 µg/mL (≈ 0.0801 µM). For the same molecule, the MIC [11] was 1 µg/mL (≈ 1.34 µM), the MIC [5, 27] was ≤ 0.06 µg/mL and the MIC [12] was ≤ 0.06 µg/mL. For the same molecule, the MIC [6, 28] was 1 µg/mL (≈ 1.34 µM), the MIC [7, 29] was 4 µg/mL (≈ 5.34 µM) and the MIC [8, 30] was 2 µg/mL (≈ 2.67 µM). For the same molecule, the MIC [13] was 128 µg/mL (≈ 171 µM), the MIC [14] was 0.5 µg/mL (≈ 0.668 µM) and the MIC [9, 31] was 0.5 µg/mL (≈ 0.668 µM). For the same molecule, the MIC (Escherichia coli MB 2884; [32]) was 1 µg/mL (≈ 1.34 µM) and the MIC [15] was ≤ 0.06 µg/mL.
With `CC[C@H]1OC(=O)[C@H](C)[C@@H](O[C@H]2C[C@@](C)(OC)[C@H](N)[C@H](C)O2)[C@H](C)[C@@H](O[C@@H]2O[C@H](C)C[C@H](N(C)C)[C@H]2O)[C@](C)(O)C[C@@H](C)N(C)C[C@H](C)[C@@H](O)[C@]1(C)O` [Example 20, 4''-Deoxy-4''-(R) - amino-9-deoxo-8a-aza-8a-methyl-8a-homoerythromycin A] the MIC [1, 16] was 0.12 µg/mL (≈ 0.16 µM), the MIC [2, 17] was 0.25 µg/mL (≈ 0.334 µM) and the MIC [3, 18] was ≤ 0.06 µg/mL. For the same molecule, the MIC [4, 19] was 0.5 µg/mL (≈ 0.668 µM), the MIC [5, 20] was ≤ 0.06 µg/mL and the MIC [6, 21] was 0.5 µg/mL (≈ 0.668 µM). It also gave an MIC [7, 22] of 2 µg/mL (≈ 2.67 µM), an MIC [8, 23] of 0.25 µg/mL (≈ 0.334 µM) and an MIC [9, 24] of 1 µg/mL (≈ 1.34 µM). It also gave an MIC (Escherichia coli MB 2884; [25]) of 0.25 µg/mL (≈ 0.334 µM).
`CC[C@H]1OC(=O)[C@H](C)[C@@H](O[C@H]2C[C@@](C)(OC)C(N)[C@H](C)O2)[C@H](C)[C@@H](O[C@@H]2O[C@H](C)C[C@H](N(C)C)[C@H]2O)[C@](C)(O)C[C@@H](C)N(C)C[C@H](C)[C@@H](O)[C@]1(C)O` (stereo partly drawn) [Example 17, 4''-Deoxy-4''-amino-9-deoxo-8a-aza-8a-methyl-8a-homoerythromycin A] was tested, and the MIC [1, 16] was ≤ 0.06 µg/mL, the MIC [2, 17] was 0.25 µg/mL (≈ 0.334 µM) and the MIC [3, 18] was ≤ 0.06 µg/mL. For the same molecule, the MIC [4, 19] was 0.5 µg/mL (≈ 0.668 µM), the MIC [5, 20] was ≤ 0.06 µg/mL and the MIC [6, 21] was 0.5 µg/mL (≈ 0.668 µM). The MIC [7, 22] was 4 µg/mL (≈ 5.35 µM), the MIC [8, 23] was 0.12 µg/mL (≈ 0.16 µM) and the MIC [9, 24] was 1 µg/mL (≈ 1.34 µM). The MIC (Escherichia coli MB 2884; [25]) was 0.12 µg/mL (≈ 0.16 µM).
`CC[C@H]1OC(=O)[C@H](C)[C@@H](O[C@H]2C[C@@](C)(OC)[C@@H](O)[C@H](C)O2)[C@H](C)[C@@H](O[C@@H]2O[C@H](C)C[C@H](N(C)C)[C@H]2O)[C@](C)(O)C[C@@H](C)C(=O)[C@H](C)[C@@H](O)[C@]1(C)O` [Erythromycin A, erythromycin A] was tested, and the MIC ([1]; Enterobacter cloacae, CL4298, read-out: In vitro Activity) was 16 µg/mL (≈ 21.8 µM), the MIC ([2]; Haemophilus influenzae, AT43163, read-out: In vitro Activity) was 2 µg/mL (≈ 2.73 µM) and the MIC ([3]; Streptococcus pneumoniae, CL2883, read-out: In vitro Activity) was ≤ 0.06 µg/mL. The MIC ([4]; Haemophilus influenzae, MB5363, read-out: In vitro Activity) was 2 µg/mL (≈ 2.73 µM), the MIC ([5]; Streptococcus pyogenes, MB2874, read-out: In vitro Activity) was ≤ 0.06 µg/mL and the MIC ([6]; Staphylococcus epidermidis, MB5414, read-out: In vitro Activity) was 0.12 µg/mL (≈ 0.164 µM). For the same molecule, the MIC ([7]; Enterococcus faecalis, MB5407, read-out: In vitro Activity) was 1 µg/mL (≈ 1.36 µM), the MIC ([8]; Klebsiella pneumoniae, MB4005, read-out: In vitro Activity) was 32 µg/mL (≈ 43.6 µM) and the MIC ([9]; Staphylococcus aureus, MB2865, read-out: In vitro Activity) was 0.12 µg/mL (≈ 0.164 µM). It also gave an MIC (Escherichia coli MB 2884; [25]) of 16 µg/mL (≈ 21.8 µM).
